Data on eight molecules can be found in paper PMC10740580, “Benzothiazole-Phthalimide Hybrids as Anti-Breast Cancer and Antimicrobial Agents” (Antibiotics, 2023).

One experiment concerns angiogenesis. To be noted: previous study, reduced side effects compared to thalidomide; cited from earlier work.
The test system of a further experiment is MCF-7 cells. The experiment is described as follows: MTT cell viability assay, MCF-7. The format is cell-based, human. Conditions: mean ± SD; for IC50: Homo sapiens, MCF7, 72 h exposure. The procedure:
(§1) The anticancer activity of the studied compounds (3a–h) was explored with regards to two human breast cancer cell lines, namely the estrogen receptor positive (ER+) MCF-7 cells and the triple negative MDA-MB-231 cells (ER-, PR-, and HER-2/Neu-). Cells were continuously exposed to the test substances for 72 h, after which their viability was assessed by means of the MTT assay. Table 2 lists the determined IC50 values for the investigated substances and the reference drug, thalidomide. […] Additionally, the same test for all the compounds has been performed on nonmalignant breast epithelial cells (MCF-10A) to ascertain their potential cytotoxicity.
(§2) The four cell lines used in this work (MCF-7, MDA-MB-231, MCF-10A, and 3T3-L1) were obtained from the American Type Culture Collection (ATCC, Manassas, VA, USA). All cell lines were maintained at 37 °C in a humidified atmosphere of 95% air and 5% CO2 and periodically screened for contamination. MCF-7, human breast cancer cells estrogen receptor (ER)-positive, and human breast cancer triple negative MDA-MB231 were grown in DMEM-F12 medium containing 2 mmol/L L-glutamine, 1 mg/mL penicillin–streptomycin, and 5% newborn calf serum (NCS) or 5% fetal bovine serum (FBS), respectively. MCF-10A human mammary epithelial cells were cultured in DMEM/F12 medium, supplemented with 5% horse serum (HS) (Eurobio, Les Ullis, Cedex, France), 100 U/mL penicillin/streptomycin, […], 20 ng/mL hEGF (human epidermal growth factor), […], and […] (Sigma-Aldrich, Milano, Italy). BALB/3T3 murine fibroblast cells were cultured in DMEM high glucose supplemented with 10% bovine calf serum (BCS), 1% L-glutamine, and 100 U/mL penicillin/streptomycin.
(§3) Cell viability was evaluated by means of the 3-(4,5-dimethylthiazol-2-y1)-2,5-diphenyltetra zolium bromide (MTT, Sigma-Aldrich, Milan, Italy) assay. On 48-well plates, cells were seeded, and they were cultured in complete medium. Before being treated, cells were starved in serum-free medium for 24 h to allow cell cycle synchronization. Subsequently, cells were exposed to increasing doses of each compound for 72 h in phenol-red-free media supplemented with 1% serum before fresh MTT was added to each well (final concentration: 0.5 mg/mL). Cells were lysed with DMSO after 2 h of incubation at 37 °C, and optical density at 570 nm was then determined with a microplate reader. Using GraphPad Prism 9 software (GraphPad Inc., San Diego, CA, USA), the mean absorbance for each sample was expressed as a percentage over the control and plotted vs. drug concentrations to establish the IC50 values. The given standard deviations (SDs) are indicative of three separate tests carried out in triplicate.

Experiment [1] has as its system Staphylococcus aureus 25923. Description: Broth microdilution, S. aureus ATCC 25923. The experiment is classed as cell-based. To be noted: 37 °C; for MIC: Staphylococcus aureus, 25923, 24 h. An excerpt:
(§4) Compounds 3a–h were examined in accordance with the Clinical Laboratory Standards Institute (CLSI) recommendations, by means of the broth microdilution method, against gram-positive bacteria (Staphylococcus aureus 25923, Staphylococcus aureus 29213, Staphylococcus aureus 43300, Enterococcus faecalis 29212) and gram-negative bacteria (Escherichia coli 25922, Klebsiella pneumoniae 13883, Pseudomonas aeruginosa 27853) belonging to the ATCC collection, using levofloxacin as a reference drug. Table 3 lists the results, expressed as MIC (µg/mL). […] The lack of activity observed for compound 3d could be conceivably due to its poor solubility in the culture medium containing the inoculum.
(§5) Following the recommendations of the CLSI (Clinical and Laboratory Standards Institute, 2012), the broth microdilution method was used to determine the in vitro minimum inhibitory concentrations (MICs, µg/mL).. The concentration of the investigated compounds was set to its highest value to create stock solutions. Then, the stock solutions were diluted 1:10 with Cation-Adjusted Mueller Hinton Broth (Oxoid, Milan, Italy). After that, a series of concentrations from 512 µg/mL to […] were obtained in the wells by performing two-fold serial dilutions in the appropriate test medium. The diluent used to create the stock solution was 100% DMSO. We used the following bacterial strains from the ATCC collection that were available as freeze-dried discs: gram-positive strains such as S. aureus ATCC 25923, 29213, and 43300, and E. faecalis ATCC 29212, and gram-negative ones such as E. coli ATCC 25922, K. pneuomoniae ATCC 13883, and P. aeruginosa ATCC 27853. To preserve the purity of cultures and to allow their reproducibility, cryovials of all microbial strains were set up in the medium and stored at −80 °C. Mueller Hinton Broth (MHB) was used to prepare pre-cultures of each bacterial strain, which were then incubated for 3–5 h at 37 °C. In accordance with CLSI procedure M7-A9, the turbidity of the bacterial cell suspension was calibrated to 0.5 McFarland Standard using a spectrophotometric approach (OD625 nm 0.08–0.10). The standardized suspension was then further diluted (1:100) with MHB to reach 1–2 × 10^6 CFU/mL. A 200 µL aliquot of the final inoculum was inserted into each well. As a control for growth, several wells containing only inoculated broth were prepared. The plates were incubated at 37 °C for 24 h, and the MIC values were calculated as the lowest concentration of compounds at which there was no optically detectable bacteria growth. Each experiment was carried out in duplicate and repeated twice to determine the MICs. Levofloxacin served as the study’s standard reference antibiotic. Additionally, the antibacterial activity of DMSO alone (used as a diluent for the investigated compounds) was examined; therefore, volumes of this solvent with a concentration of less than 5% were utilized throughout the experimentation.

The next experiment has as its system MCF-10A cells. Description: MTT cell viability assay, nonmalignant MCF-10A. The format is cell-based. Conditions: Homo sapiens, 72 h exposure, nonmalignant breast epithelial cells, mean ± SD, read-out: IC50 MCF10-A. The procedure:
as §1, §2, §3
On the technique in general: Formazan colour is commonly taken as a measure of viable cells.

In experiment [2] the test system is Pseudomonas aeruginosa 27853. The experiment is described as follows: Broth microdilution, P. aeruginosa ATCC 27853. The format is cell-based. To be noted: 24 h, 37 °C.
Description: as §4, §5
(In broth dilution the organism is exposed to a series of concentrations in liquid medium.)

For the next experiment, the system named is gram-positive bacteria. Description: Broth microdilution, gram-positive bacteria. The format is cell-based. To be noted: read-out: MIC against gram-positive bacteria.
Description: as §4
Following the recommendations of the CLSI (Clinical and Laboratory Standards Institute, 2012), the broth microdilution method was used to determine the in vitro minimum inhibitory concentrations (MICs, µg/mL).. The concentration of the investigated compounds was set to its highest value to create stock solutions. Then, the stock solutions were diluted 1:10 with Cation-Adjusted Mueller Hinton Broth (Oxoid, Milan, Italy). After that, a series of concentrations from 512 µg/mL to […] were obtained in the wells by performing two-fold serial dilutions in the appropriate test medium. The diluent used to create the stock solution was 100% DMSO. […]

A further experiment deals with gram-negative bacteria. The experiment is described as follows: Broth microdilution, gram-negative bacteria. To be noted: read-out: MIC against gram-negative bacteria. The format is cell-based.
Description: as §4
Following the recommendations of the CLSI (Clinical and Laboratory Standards Institute, 2012), the broth microdilution method was used to determine the in vitro minimum inhibitory concentrations (MICs, µg/mL).. The concentration of the investigated compounds was set to its highest value to create stock solutions. Then, the stock solutions were diluted 1:10 with Cation-Adjusted Mueller Hinton Broth (Oxoid, Milan, Italy). After that, a series of concentrations from 512 µg/mL to […] were obtained in the wells by performing two-fold serial dilutions in the appropriate test medium. The diluent used to create the stock solution was 100% DMSO. We used the following bacterial strains from the ATCC collection that were available as freeze-dried discs: gram-positive strains such as S. aureus ATCC 25923, 29213, and 43300, and E. faecalis ATCC 29212, and gram-negative ones such as E. coli ATCC 25922, K. pneuomoniae ATCC 13883, and P. aeruginosa ATCC 27853. To preserve the purity of cultures and to allow their reproducibility, cryovials of all microbial strains were set up in the medium and stored at −80 °C. Mueller Hinton Broth (MHB) was used to prepare pre-cultures of each bacterial strain, which were then incubated for 3–5 h at 37 °C. […]

Converted amounts (≈) assume the structure as drawn. A value given as a limit tells only on which side of the number the result lay.

By IC50 is commonly meant the midpoint of a concentration-inhibition curve. In general, MIC refers to the lowest concentration that inhibits growth of the organism.

As to `O=C1c2ccccc2C(=O)N1c1nc2ccccc2s1` [3a, 2-(1,3-benzothiazol-2-yl)-1H-isoindole-1,3(2H)-dione], in the experiment with angiogenesis, the antiangiogenic activity entry is “performed as antiangiogenic agents”. Further, the figures for the IC50 in the experiment on MCF-7 cells and in the experiment on MCF-10A cells were 165.5 ± 1.1 µM and above 500 µM, respectively. Besides, the minimal inhibitory concentration (MIC) in experiment [1] and in experiment [2] was 64 µg/mL (≈ 228 µM) each time.

As to `O=C1c2ccccc2C(=O)N1c1nc2ccc(F)cc2s1` [3b, 2-(6-Fluoro-1,3-benzothiazol-2-yl)-1H-isoindole-1,3(2H)-dione], the results for the IC50 in the experiment with MCF-7 cells and with MCF-10A cells were 91.5 ± 0.6 µM and 151.9 ± 1.1 µM, respectively. The minimum inhibitory concentration (MIC) in experiment [1] and in experiment [2] was 64 µg/mL (≈ 215 µM) in each case.

Regarding `O=C1c2ccccc2C(=O)N1c1nc2ccc(C(F)(F)F)cc2s1` [3c, 2-[6-Trifluoromethyl-1,3-benzothiazol-2-yl]-1H-isoindole-1,3(2H)-dione], the “IC50 MCF-7” value in the experiment with MCF-7 cells (72 h exposure) is reported as “did not possess any activity”. Besides, the IC50 in the experiment on MCF-7 cells and with MCF-10A cells was above 500 µM throughout. The MIC in experiment [1] and in experiment [2] was 128 µg/mL (≈ 367 µM) each time.

As to `Cc1ccc2nc(N3C(=O)c4ccccc4C3=O)sc2c1` [3d, 2-[6-Methyl-1,3-benzothiazol-2-yl]-1H-isoindole-1,3(2H)-dione], the antiangiogenic activity result with angiogenesis is reported as “performed as antiangiogenic agents”. Further, the IC50 is 66 ± 1.2 µM in the experiment on MCF-7 cells and above 500 µM in the experiment on MCF-10A cells. Besides, the MIC in experiment [1] and in experiment [2] was above 512 µg/mL in each case.

Take `COc1ccc2nc(N3C(=O)c4ccccc4C3=O)sc2c1` [3e, 2-[6-Methoxy-1,3-benzothiazol-2-yl]-1H-isoindole-1,3(2H)-dione]: the IC50 in the experiment on MCF-7 cells is 223.1 ± 0.9 µM; in the experiment on MCF-10A cells, above 500 µM. Moreover, the MIC in experiment [1] is 32 µg/mL (≈ 103 µM); in experiment [2], 64 µg/mL (≈ 206 µM).

Consider `COc1cc2nc(N3C(=O)c4ccccc4C3=O)sc2cc1OC` [3f, 2-[5,6-Dimethoxy-1,3-benzothiazol-2-yl]-1H-isoindole-1,3(2H)-dione], for which the IC50 with MCF-7 cells is 93 ± 1.4 µM; in the experiment on MCF-10A cells, above 500 µM. Further, the MIC in experiment [1] was 32 µg/mL (≈ 94 µM); in the experiment with gram-positive bacteria, 32 to 64 µg/mL (≈ 94 to 188 µM); in the experiment with gram-negative bacteria, 64 µg/mL (≈ 188 µM); in experiment [2], 64 µg/mL (≈ 188 µM).

As for `O=C1c2ccccc2C(=O)N1c1nc2ccc(O)cc2s1` [3g, 2-[6-Hydroxy-1,3-benzothiazol-2-yl]-1H-isoindole-1,3(2H)-dione], the figures for the half-inhibitory concentration (IC50) in the experiment with MCF-7 cells and in the experiment with MCF-10A cells were 71.2 ± 0.7 µM and above 500 µM, respectively. The minimal inhibitory concentration (MIC) in experiment [1] was 32 µg/mL (≈ 108 µM); in the experiment with gram-positive bacteria, 32 to 64 µg/mL (≈ 108 to 216 µM); in the experiment on gram-negative bacteria, 64 µg/mL (≈ 216 µM); in experiment [2], 64 µg/mL (≈ 216 µM).

On to `O=C1c2ccccc2C(=O)N1c1nc2ccc(Oc3ccccc3)cc2s1` [3h, 2-[6-Phenoxy-1,3-benzothiazol-2-yl]-1H-isoindole-1,3(2H)-dione], for which the IC50 in the experiment with MCF-7 cells was found to be 26.2 ± 0.9 µM; in the experiment on MCF-10A cells it was 193.9 ± 1 µM. In addition, in experiment [1] (24 h), the “MIC S.a. 25923” value amounted to 16 µg/mL (≈ 43 µM). Also, the MIC is 16 µg/mL (≈ 43 µM) in experiment [1], 32 µg/mL (≈ 85.9 µM) in the experiment with gram-negative bacteria and 32 µg/mL (≈ 85.9 µM) in experiment [2].
